{"source": "patent US7074761B1", "about": "“Peptides and production and use thereof” (Takeda Chemical Ind., Ltd., priority 1996, dated 2006)", "key": {"human SSTR4": {"molecular_target": "T1, human SSTR4 (Homo sapiens, UniProt P31391)", "T1 construct": "expressed in transfected cells; host or cells: CHO(dhfr-) cells, clone SSTR4-1-2, plasmid pA-1-11-SSTR4 (vector pAKKO-111)", "T1 sequence (P31391 whole entry)": "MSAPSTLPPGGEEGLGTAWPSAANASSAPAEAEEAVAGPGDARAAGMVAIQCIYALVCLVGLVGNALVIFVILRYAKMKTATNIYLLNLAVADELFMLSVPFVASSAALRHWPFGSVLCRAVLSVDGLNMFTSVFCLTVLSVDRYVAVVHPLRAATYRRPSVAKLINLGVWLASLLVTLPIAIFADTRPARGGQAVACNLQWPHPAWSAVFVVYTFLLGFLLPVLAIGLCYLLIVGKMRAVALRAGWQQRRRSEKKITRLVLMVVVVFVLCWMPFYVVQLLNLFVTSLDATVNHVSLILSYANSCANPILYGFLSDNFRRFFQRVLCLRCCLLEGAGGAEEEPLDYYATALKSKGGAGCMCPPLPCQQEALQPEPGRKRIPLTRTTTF", "assay": "cAMP accumulation inhibiting activity in SSTR4 expressing CHO cells (forskolin stimulated)", "assay_type": "cell-based", "settings": "forskolin 10 μM, CHO cells SSTR4-1-2; read-out: ED50, inhibition of intracellular cAMP accumulation, SSTR4", "procedure": "For measuring the intracellular accumulations of cyclic adenosine 3′,5′-monophosphate (cAMP), the human somatostatin receptor expressing cell lines SSTR2-HS5-9, SSTR3-15-19, SSTR4-1-2 and SSTR5-32-4 respectively described in Reference Example 2 (3), Reference Example 3 (3), Reference Example 4 (3) and Reference Example 5 (3) were multiplied on 24-well plates until confluency. Said cells were washed with two 1-ml portions of medium A [Dulbecco-'s modified Eagle's medium (DMEM), 20 mM 2-[4-(2-hydroxyethyl)-1-piperazinyl]ethanesulfonic acid (HEPES) (pH. 7.5), 0.2% BSA, 0.2 mM 3-isobutyl-1-methylxanthine (IBMX)] and then 400 μl of medium A was added to each well and incubation was carried out at 37° C. for 1 hour. To each well were added 50 μl of a hCS-15 or hCS-17 solution (each diluted to a concentration 10 times the final concentration with medium A) and 50 μl of a forskolin solution (final concentration: 10 μM), and incubation was carried out at 37° C. for 30 minutes. The cells were washed with two 1-ml portions of medium A and then 500 μl of medium A and 100 μL of 20% aqueous perchloric acid solution were added to each well, followed by standing at 4° C. for 20 minutes for cell lysis. […] The amount of cAMP contained in this extract was determined using an Amersham's kit (cAMP EIA system)."}, "human SSTR5": {"molecular_target": "T2, human SSTR5 (Homo sapiens, UniProt P35346)", "T2 construct": "expressed in transfected cells; host or cells: CHO(dhfr-) cells, clone SSTR5-32-4, plasmid pA-1-11-SSTR5 (vector pAKKO-111)", "T2 sequence (P35346 whole entry)": "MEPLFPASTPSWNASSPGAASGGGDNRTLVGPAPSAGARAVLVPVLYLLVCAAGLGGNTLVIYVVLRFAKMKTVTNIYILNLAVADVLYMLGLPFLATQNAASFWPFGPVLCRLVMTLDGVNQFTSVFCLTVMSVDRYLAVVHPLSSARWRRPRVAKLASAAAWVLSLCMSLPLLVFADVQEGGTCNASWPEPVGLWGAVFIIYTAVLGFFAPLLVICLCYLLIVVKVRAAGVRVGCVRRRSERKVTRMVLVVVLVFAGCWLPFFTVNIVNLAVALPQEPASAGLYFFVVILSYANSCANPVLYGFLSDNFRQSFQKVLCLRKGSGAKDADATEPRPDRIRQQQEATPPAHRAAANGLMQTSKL", "assay": "[125I]-somatostatin binding inhibition, SSTR5 CHO cell membrane fraction", "settings": "25° C., 60 minutes", "procedure": "CHO(dhfr^−) cells (1×10^6 cells) were cultured on HAM F12 medium containing 10% fetal bovine serum in a dish with a diameter of 8 cm for 24 hours. Into these cells was introduced 10 μg of the human SSTR5 cDNA expression plasmid pA-1-11-SSTR5 obtained as described above in (2) by the calcium phosphate method (Cell Phect Transfection Kit; Pharmacia). At 24 hours after transfection, the medium was exchanged for DMEM containing 10% dialyzed fetal bovine serum, and cells forming a colony on this medium (namely DHFR^+ cells) were selected. Further, the cells selected were treated by the limiting dilution method for cloning from a single cell, and the cells thus cloned were measured for their somatostatin receptor protein expression ability by the binding assay described in Reference Example 1 (3). In this manner, a cell line with high somatostatin-binding activity. SSTR5-32-4, was selected. […]\nThe membrane fractions prepared in Reference Example 6 were each diluted to 3 μg/ml with assay buffer. […] After filtration, the radioactivity of [^125I]-somatostatin remaining on the filter paper was measured. For each test substance, the binding inhibition percentage (%) was calculated according to the formula: PBM=(B−NSB)/(B0−NSB)×100 (where PBM: percent maximum binding; B: radioactivity when the test sample is added; B0: maximum bound radioactivity; NSB: non-specifically bound radioactivity). […]"}}, "note": "Where a SMILES comes first, the peptide text is derived from it. Bridges are numbered along the chain shown (N, C = ends)."}
{"compound": "CSCC[C@H](N)C(=O)N1CCC[C@H]1C(=O)N[C@H]1CSSC[C@@H](C(=O)N[C@@H](CCCCN)C(=O)O)NC(=O)[C@H](CO)NC(=O)[C@H](CO)NC(=O)[C@H](Cc2ccccc2)NC(=O)[C@H]([C@@H](C)O)NC(=O)[C@H](CCCCN)NC(=O)[C@H](Cc2c[nH]c3ccccc23)NC(=O)[C@H](Cc2ccccc2)NC(=O)[C@H](Cc2ccccc2)NC(=O)[C@H](CC(N)=O)NC(=O)[C@H](CCCNC(=N)N)NC1=O", "note": "[hCS-15] (H-MPCRNFFWKTFSSCK-OH; disulfide 3-14; N-terminus and C-terminus assumed)", "values": [{"measurement": "EC50", "setting": "human SSTR4", "result": 0.2, "unit": "nM"}, {"measurement": "IC50", "setting": "human SSTR5", "result": 0.6, "unit": "nM"}]}
